# Data as given in patent publication US10736932B2, “Small molecule Ras inhibitors” (Ohio State Innovation Foundation, priority 2014, dated 2020).
# “And” between values parts separate entries of the source, which are not always exact repeats. Equal entries are not always repeated. “Also recorded” adds a separate entry of the source. Where two headings read alike, the source gives them in different places. Numbered stars: 1 amine (or outer) side, 2 acyl side, 3 side chain; on linkers, the order of the positions; unused ones are H or OH. Bridge positions count the residues as written; N and C are the ends. Square brackets hold non-standard residues; d marks the D form. Peptide text beside a SMILES is read from it. * marks the point of attachment. ξ: configuration not given here. Lys(5-FITC)NH2 = NC(=O)[C@H](CCCCNC(=S)Nc1ccc2c(c1)C(=O)OC21c2ccc(O)cc2Oc2cc(O)ccc21)N*; FITC = O=C1OC2(c3ccc(O)cc3Oc3cc(O)ccc32)c2ccc(NC(=S)*)cc21; dβ3h(hPhe) = O=C(C[C@@H](CCc1ccccc1)N[*:1])[*:2]; Phe(4-F) = N[C@@H](Cc1ccc(F)cc1)C(=O)O; d2Nal = N[C@H](Cc1ccc2ccccc2c1)C(=O)O; Benzoyl(3-Cl) = O=C(c1cccc(Cl)c1)*; X1 = CC(C)(CO[*:2])C(=O)C(=O)[*:1]; ξ2Nal = NC(Cc1ccc2ccccc2c1)C(=O)O; Tle = CC(C)(C)[C@H](N)C(=O)O; dNle = CCCC[C@@H](N)C(=O)O; X4 = O=C(c1ccc(Cl)nc1)*; Dap = NC[C@H](N)C(=O)O; ξPip = O=C(O)C1CCCCN1
# Tests used:
# A549 cells [1] = assay: Cellular uptake of FITC-labeled peptides (live-cell confocal microscopy, FACS); conditions: for cell permeability relative to earlier peptides: Gln8 replaced with L- or D-arginine
# [2] = target: T1, K-Ras / Raf RBD interaction (Homo sapiens, UniProt P01116, G12V); assay: HTRF assay, inhibition of Ras-Raf RBD interaction; format: binding;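 also: HTRF signal read after overnight incubation of the assay plate at 4 °C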
# T1 construct: The G12V mutant K-Ras (amino acids 1-185) was recombinantly fused; GST (N, cleaved yes); made in house; host or cells: Escherichia coli BL21
# Procedure: Recombinant HA-tagged K-Ras (no GST, 50 nM), GST-Raf RBD (50 nM each), a monoclonal anti-HA antibody labeled with acceptor d2 (2 μg/mL), a monoclonal anti-GST antibody labeled with donor Tb (0.25 μg/mL) (Cisbio), and increasing concentrations of cyclic peptide (0-20 μM) were mixed inPBS (total volume of 20 μL) in a 384-well plate. The plate was incubated overnight at 4° C. and the HTRF signal was measured on a Molecular Devices Spectramax M5 or a Tecan infinite M1000 Pro plate reader. The data were analyzed by Prism 6.0 from Graphpad Software, Inc. (La Jolla, Calif.) and IC50 values were obtained by fitting the data to dose-response-inhibition curve.
# H1299 lung cancer cells = format: cell-based; conditions: for anti-proliferative activity against lung cancer cells (in words): MTT assay
# Procedure: MTT assays (17) were performed with H1299 lung cancer cells. One hundred μL of H1299 cells (0.5×10^5 cells/mL) were seeded in each well of a 96-well culture plate and allowed to grow overnight in Advanced RPMI medium supplemented with 10% fetal bovine serum (FBS) and 1% penicillin-streptomycin. Varying concentrations of cyclic peptide (0-25 μM) were added to the each well and the cells were incubated at 37° C. with 5% CO2 for 72 hours. Ten μL of a MTT stock solution (Roche) was added into each well. The plate was incubated at 37° C. for 4 h. Then 100 μL of SDS-HCl solubilizing buffer was added into each well, and the resulting solution was mixed thoroughly. The plate was incubated at 37° C. overnight. The absorbance of the formazan product was measured at 570 nm using a Molecular Devices Spectramax M5 plate reader. Each experiment was performed in triplicates and the cells without any peptide added were treated as control.
# [3] = inability to cross the cell membrane; cited from earlier work
# [4] = tested on: actin filaments in A549 cells; assay: Actin filament staining (phalloidin-FITC) by confocal microscopy; format: cell-based; conditions: 10 μM, 15 min
# Excerpt: The inhibition of Ras affects proliferation and survival of cells. […] These morphological changes are consistent with a collapse of the actin cytoskeleton. The dephosphorylation of cofilin activates the actin filament severing activity of this protein. The severing of actin filaments results in the collapse of the actin cytoskeleton. […] Without actin filaments, cells tend to round up and lose attachment to the substrate.
# [5] = tested on: phosphorylation of Akt, Mek and Erk in H1650 cells; assay: Western blot of Ras signaling in H1650 cells; format: cell-based; conditions: 10 μM, 10 min
# Excerpt: (§1) In the MTT assay, A549 cells were also found to be more resistant to the Ras inhibitors than other cell lines.
# (§2) In H1975 the EGFR is also mutated. Certain mutated EGFR cannot be inhibited with Tarceva® due to the resistance conferring T790M mutation which precludes binding of the drug.
# [6] = tested on: phosphorylation of Akt, Mek and Erk in H1299 cells; assay: Western blot of Ras signaling (Akt, Mek, Erk phosphorylation) in H1299 cells; format: cell-based
# Excerpt: (§3) Two well characterized Ras effector pathways are the Raf-Mek-Erk and PI3K-Akt signaling pathways (Karnoub, A. E. et al. (2008) Nat Rev. Mol. Cell Biol. 9:517). To determine whether the cyclic peptides inhibited the intracellular Ras activity, Applicants monitored the phosphorylation levels of Mek, Erk, and Akt in cells before and after treatment with the Ras inhibitors. […] In order to rule out that the observed downregulation of P-Mek, P-Erk and P-Akt is caused by inhibition of EGFR signaling, the effect of Cyclosrasin 9A5 on the phosphorylation of the EGFR was tested by performing an IP/Western Blot experiment (FIG. 3E). Active, signaling EGFR is highly autohophosphorylated.
# as §1
# [7] = tested on: phosphorylation of Akt, Mek and Erk in H1975 cells; assay: Western blot of Ras signaling in H1975 cells; format: cell-based; conditions: 10 μM, 10 min
# Excerpt: as §1, §2
# EGFR phosphorylation = assay: IP/Western blot of EGFR phosphorylation; format: cell-based; conditions: 13 μM
# Excerpt: as §3
# [8] = tested on: phosphorylation of Akt, Mek and Erk in A549 cells; assay: Western blot of Ras signaling in A549 cells; format: cell-based; conditions: 10 μM, 10 min
# [9] = target: maltose-binding protein-XIAP BIR3 domain fusion (Homo sapiens, UniProt P98170); assay: FA binding of FITC-9A5 to control protein MBP-XIAP BIR3
# A549 cells [10] = tested on: A549 cells
# K-Ras(G12V) = target: T2, K-Ras(G12V) (Homo sapiens, UniProt P01116, G12V); assay: Fluorescence anisotropy (FA) binding of FITC-labeled cyclic peptides to K-Ras; conditions: Table 2; FITC-labeled peptide; read-out: Binding affinity KD
# T2 construct: The G12V mutant K-Ras (amino acids 1-185) was recombinantly fused; GST (N, cleaved yes); made in house; host or cells: Escherichia coli BL21
# Procedure: The 13 hits were resynthesized, labeled with fluorescein isothiocyanate (FITC), purified by HPLC, and tested for binding to K-Ras by fluorescence anisotropy (FA).
# For cyclic peptides derived from single library beads (library screening), K-Ras protein (non-GST fusion, 0-20 μM) was incubated with the TMR-labeled peptide (50 or 100 nM) in 20 μL of the blocking buffer for 2.5 h at 24° C. The FA values were measured on a Molecular Devices Spectramax M5 spectrofluorimeter, with excitation and emission wavelengths at 545 and 585 nm, respectively. Equilibrium dissociation constants (KD) were determined by plotting the FA values as a function of K-Ras concentration and fitting the data to the equation
# [formula] where Y is the measured anisotropy at a given K-Ras concentration x; L is the peptide concentration; Qb/Qf is the correction fact for dye-protein interaction; Amax is the maximum anisotropy at saturating K-Ras concentration; and Amin is the minimum anisotropy. FA analyses with resynthesized FITC-labeled peptides were similarly carried out, except that the excitation and emission wavelengths were at 494 and 520 nm, respectively.
# [11] = inhibition of Ras-Raf interaction, read-out: HTRF IC50
# T1 sequence (P01116 1-185 isoform P01116-2 G12V): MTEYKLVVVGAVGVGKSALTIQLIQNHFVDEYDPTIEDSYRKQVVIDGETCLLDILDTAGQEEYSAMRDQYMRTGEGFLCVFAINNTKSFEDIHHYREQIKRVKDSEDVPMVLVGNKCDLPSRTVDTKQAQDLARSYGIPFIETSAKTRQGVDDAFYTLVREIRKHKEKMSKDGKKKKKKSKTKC
# T2 sequence (P01116 1-185 isoform P01116-2 G12V): as above
# Sequence of maltose-binding protein-XIAP BIR3 domain fusion (P98170 241-356 limits assumed): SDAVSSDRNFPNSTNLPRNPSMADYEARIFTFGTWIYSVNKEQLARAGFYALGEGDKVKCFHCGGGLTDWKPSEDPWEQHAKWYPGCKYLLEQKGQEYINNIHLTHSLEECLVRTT
compound,measurement,setting,value
"CCCC[C@H]1NC(=O)[C@H](Cc2ccc(F)cc2)NC(=O)[C@H](CCCNC(=N)N)NC(=O)[C@@H](Cc2ccc3ccccc3c2)NC(=O)[C@H](CCCNC(=N)N)NC(=O)[C@H](CCCNC(=N)N)NC(=O)[C@H](CCC(=O)N[C@@H](CCCCNC(=S)Nc2ccc3c(c2)C(=O)OC32c3ccc(O)cc3Oc3cc(O)ccc32)C(N)=O)NC(=O)[C@@H](C)NC(=O)[C@H]([C@@H](C)O)NC(=O)[C@H](Cc2c[nH]c3ccccc23)NC(=O)[C@@H](CO)NC1=O [Cyclorasin 9A, (Arg-Arg-nal-Arg-Fpa-nle-ser-Trp-Thr-ala-Gln)] (cyclo(RR[d2Nal]R[Phe(4-F)][dNle][dS]WT[dA]E(Lys(5-FITC)NH2)))",cell permeability,"A549 cells [1]; A549 cells, 10 μM FITC-labeled peptide, 1.5 h",cell permeable
same,IC50,[2]; [11],650 ± 110 nM
same,anti-proliferative activity against lung cancer cells (in words),H1299 lung cancer cells,weak
CCCC[C@H]1NC(=O)[C@H](Cc2ccc(F)cc2)NC(=O)[C@H](CCCN=C(N)N)NC(=O)C(Cc2ccc3ccccc3c2)NC(=O)[C@H](CCCN=C(N)N)NC(=O)[C@H](CCCN=C(N)N)NC(=O)[C@H](CCC(N)=O)NC(=O)C[C@@H](CCc2ccccc2)NC(=O)C2CCCCN2C(=O)C(=O)C(C)(C)COC1=O (stereo partly shown) [Compound 12] ([ξPip][dβ3h(hPhe)]QRR[ξ2Nal]R[Phe(4-F)][dNle]; linker N-C via X1),cellular activity,[3],lacked cellular activity
"CCCC[C@H]1NC(=O)[C@H](Cc2ccc(F)cc2)NC(=O)[C@H](CCCNC(=N)N)NC(=O)[C@@H](Cc2ccc3ccccc3c2)NC(=O)[C@H](CCCNC(=N)N)NC(=O)[C@H](CCCNC(=N)N)NC(=O)[C@H](CCCNC(=N)N)NC(=O)[C@@H](C)NC(=O)[C@H]([C@@H](C)O)NC(=O)[C@H](Cc2c[nH]c3ccccc23)NC(=O)[C@H](CCC(N)=O)NC1=O [Cyclorasin 9A5, (Trp-Thr-ala-Arg-Arg-Arg-nal-Arg-Fpa-nle-Gln)] (cyclo(WT[dA]RRR[d2Nal]R[Phe(4-F)][dNle]Q))",actin filaments in treated cells,[4],absent
same,"Mek, Erk and Akt phosphorylation",[5],almost completely abolished; also recorded: can be inhibited
same,basal phosphorylation of Mek and Akt,"[6]; H1299 cells unstimulated with EGF, 10 μM for 10 min",inhibited
same,"Mek, Erk and Akt phosphorylation","[6]; H1299 cells, 10 μM, 10 min",almost completely abolished
same,EGF-induced phosphorylation of Akt and Mek,"[6]; H1299 cells, 13 μM, 5 min",significant reduction
same,phosphorylation level of Erk,"[6]; H1299 cells, 13 μM, time course","decreased, but to a lesser extent"
same,EGF-induced phosphorylation of Akt and Mek,"[6]; H1299 cells, 13 μM, ≥10 min",completely abolished
same,"Mek, Erk and Akt phosphorylation",[7],almost completely abolished; also recorded: can be inhibited
same,cell permeability relative to earlier peptides,A549 cells [1],improved cell permeability
same,IC50,[2],120 nM
same,EGFR phosphorylation level,EGFR phosphorylation,does no affect; also recorded: no effect
same,"Mek, Erk and Akt phosphorylation",[8],significant Mek and Erk phosphorylation remained
CCCC[C@H]1NC(=O)[C@H](Cc2ccc(F)cc2)NC(=O)[C@H](CCCNC(=N)N)NC(=O)[C@@H](Cc2ccc3ccccc3c2)NC(=O)[C@H](CCCCNC(=S)Nc2ccc3c(c2)C(=O)OC32c3ccc(O)cc3Oc3cc(O)ccc32)NC(=O)[C@H](CCCNC(=N)N)NC(=O)[C@H](CCCNC(=N)N)NC(=O)[C@@H](C)NC(=O)[C@H]([C@@H](C)O)NC(=O)[C@H](Cc2c[nH]c3ccccc23)NC(=O)[C@H](CCC(N)=O)NC1=O [FITC-9A5] (cyclo(K(FITC)[d2Nal]R[Phe(4-F)][dNle]QWT[dA]RR)),Kd,[9],~30000 nM and 30000 nM
same,mean fluorescence intensity relative to FITC-9A54 (FACS),"A549 cells [1]; A549 cells, 10 μM FITC-labeled peptide",~5 fold
same,intracellular fluorescence pattern (confocal microscopy),"A549 cells [1]; A549 cells, 10 μM FITC-labeled peptide, 15 min","intense, defuse fluorescence throughout the cytoplasm"
"CCCC[C@H]1NC(=O)[C@H](CNC(=O)c2cccc(Cl)c2)NC(=O)[C@H](CCCNC(=N)N)NC(=O)[C@@H](Cc2ccc3ccccc3c2)NC(=O)[C@H](CCCNC(=N)N)NC(=O)[C@H](CCCNC(=N)N)NC(=O)[C@H](CCCNC(=N)N)NC(=O)[C@@H](C)NC(=O)[C@H](C(C)(C)C)NC(=O)[C@H](Cc2c[nH]c3ccccc23)NC(=O)[C@H](CCC(N)=O)NC1=O [Cyclorasin 9A44d, (Trp-Tle-ala-Arg-Arg-Arg-nal-Arg-Dap(3-chlorobenzoyl)-nle-Gln)] (cyclo(W[Tle][dA]RRR[d2Nal]R[Dap](Benzoyl(3-Cl))[dNle]Q))",IC50,[2],49 ± 7 nM
same,IC50,"H1299 lung cancer cells; H1299 cells, MTT, 72 hours, read-out: Anti-proliferative Activity IC50",14000 ± 2000 nM
"C[C@H]1NC(=O)[C@H](CCCNC(=N)N)NC(=O)[C@H](Cc2c[nH]c3ccccc23)NC(=O)[C@H](CCCNC(=N)N)NC(=O)[C@H](Cc2ccc(F)cc2)NC(=O)[C@H](CCCNC(=N)N)NC(=O)[C@@H](Cc2ccc3ccccc3c2)NC(=O)[C@H](CCCNC(=N)N)NC(=O)[C@H](CCCNC(=N)N)NC(=O)[C@H](CCC(N)=O)NC1=O [Cyclorasin 12A, (Arg-Arg-nal-Arg-Fpa-Arg-Trp-Arg-ala-Gln)] (cyclo(RR[d2Nal]R[Phe(4-F)]RWR[dA]Q); ring closure inferred)",IC50,[2]; [11],1000 nM
same,anti-proliferative activity against lung cancer cells (in words),H1299 lung cancer cells,weak
same,cell permeability,A549 cells [10],cell permeable
"CCCC[C@H]1NC(=O)[C@H](Cc2ccc(F)cc2)NC(=O)[C@H](CCCNC(=N)N)NC(=O)[C@@H](Cc2ccc3ccccc3c2)NC(=O)[C@H](CCCNC(=N)N)NC(=O)[C@H](CCCNC(=N)N)NC(=O)[C@@H](CCCNC(=N)N)NC(=O)[C@@H](C)NC(=O)[C@H]([C@@H](C)O)NC(=O)[C@H](Cc2c[nH]c3ccccc23)NC(=O)[C@H](CCC(N)=O)NC1=O [Cyclorasin 9A6, (Trp-Thr-ala-arg-Arg-Arg-nal-Arg-Fpa-nle-Gln)] (cyclo(WT[dA][dR]RR[d2Nal]R[Phe(4-F)][dNle]Q))",cell permeability relative to earlier peptides,A549 cells [1],improved cell permeability
same,IC50,[2],170 nM
"C[C@H]1NC(=O)[C@H](C(C)(C)C)NC(=O)[C@H](CNC(=O)c2ccc(Cl)nc2)NC(=O)[C@H](CCC(N)=O)NC(=O)[C@@H](CCCCN)NC(=O)[C@H](Cc2ccc(F)cc2)NC(=O)[C@H](CCCNC(=N)N)NC(=O)[C@@H](Cc2ccc3ccccc3c2)NC(=O)[C@H](CCCCNC(=S)Nc2ccc3c(c2)C(=O)OC32c3ccc(O)cc3Oc3cc(O)ccc32)NC(=O)[C@H](CCCNC(=N)N)NC(=O)[C@H](CCCNC(=N)N)NC1=O [Cyclorasin 9A27, (Dap(6-chloronicotinoyl)-Tle-ala-Arg-Arg-Lys(FITC)-nal-Arg-Fpa-lys-Gln)] (cyclo([Dap](X4)[Tle][dA]RRK(FITC)[d2Nal]R[Phe(4-F)][dK]Q))",Kd,K-Ras(G12V),1000 ± 100 nM
"C[C@H]1NC(=O)[C@H](C(C)(C)C)NC(=O)[C@H](Cc2c[nH]c3ccccc23)NC(=O)[C@H](CCC(N)=O)NC(=O)[C@@H](CCCCN)NC(=O)[C@H](Cc2ccc(F)cc2)NC(=O)[C@H](CCCNC(=N)N)NC(=O)[C@@H](Cc2ccc3ccccc3c2)NC(=O)[C@H](CCCCNC(=S)Nc2ccc3c(c2)C(=O)OC32c3ccc(O)cc3Oc3cc(O)ccc32)NC(=O)[C@H](CCCNC(=N)N)NC(=O)[C@H](CCCNC(=N)N)NC1=O [Cyclorasin 9A31, (Trp-Tle-ala-Arg-Arg-Lys(FITC)-nal-Arg-Fpa-lys-Gln)] (cyclo(K(FITC)[d2Nal]R[Phe(4-F)][dK]QW[Tle][dA]RR))",Kd,K-Ras(G12V),110 ± 10 nM
